Assay results reported in US9359308B2, “Pyrazine kinase inhibitors” (Portola Pharmaceuticals, Inc., priority 2011, dated 2016).

Molecular target: T1, full length active recombinant SYK enzyme (Homo sapiens, UniProt P43405)
T1 construct: full length active recombinant SYK enzyme (Millipore, Calif.); purchased Millipore
Assay: Inhibition of Syk tyrosine phosphorylation activity (LANCE TR-FRET kinase assay)
Type: biochemical
Settings: activity in the Syk assays, class symbols
Description: The in vitro and in vivo human Syk activities of the inventive compounds can be determined by various procedures known in the art, such as a test for their ability to inhibit the activity of human plasma Syk. […] The IC50 value is the concentration (in nM) of the compound required to provide 50% inhibition of human Syk proteolytic activity.
An in vitro assay for detecting and measuring inhibition activity against Syk is as follows:
Inhibition of Syk Tyrosine Phosphorylation Activity
Potency of candidate molecules for inhibiting Syk tyrosine phosphorylation activity is assessed by measuring the ability of a test compound to inhibit Syk-mediated tyrosine phosphorylation of a Syk-specific substrate.
SYK tyrosine phosphorylation activity is measured using the LANCE™ Technology developed by Perkin Elmer Life and Analytical Sciences (Boston, Mass.). LANCE™ refers to homogeneous time resolved fluorometry applications using techniques such as time-resolved fluorescence resonance energy transfer assay (TR-FRET) (see generally for procedures in Perkin Elmer Application Note-How to Optimize a Tyrosine Kinase Assay Using Time Resolved Fluorescence-Based LANCE Detection, wwww.perkinelmer.com/lifesciences). The assay principle involves detection of a phosphorylated substrate using energy transfer from a phosphospecific europium-labeled antibody to streptavidin-allophycocyanin as an acceptor.
To test the ability of candidate molecules to inhibit SYK tyrosine phosphorylation activity, molecules are reconstituted in 30% DMSO and serially diluted 1:3 with the final dilution containing DMSO in the absence of the candidate molecule. The final DMSO concentration in the assay is 3%. Kinase assays are performed as a two part reaction. The first reaction is a kinase reaction and which comprises of a candidate molecule, full length active recombinant SYK enzyme (Millipore, Calif.) and biotin-labeled SYK-specific substrate biotin-DEEDYESP-OH. The second reaction involves termination of the kinase reaction and the simultaneous addition of the detection reagents-europium-labeled anti-phosphotyrosine reagent (Eu-W1024-PY100, Perkin Elmer, Boston, Mass.) and Streptavidin-Allophycocyanin detection reagent (SA-APC, Prozyme, CA). The kinase reaction is performed in a black U-bottom 96-well microtitre plate. The final reaction volume is 50 μL and contains a final concentration of 1 nM active SYK enzyme, 550 nM SYK-substrate, and 100 μM ATP diluted in a buffer containing 50 mM Tris pH 7.5, 5 mM MgCl2, and 1 mM DTT. The reaction is allowed to proceed for 1 hour at room temperature. The quench buffer contains 100 mM Tris pH 7.5, 300 mM NaCl2, 20 mM EDTA, 0.02% Brij35, and 0.5% BSA. The detection reagents are added to the reaction mixture at the following dilutions-1:500 for Eu-W1024-PY100 and 1:250 for SA-APC. The kinase reaction is terminated by the addition of 50 μL quench buffer containing the detection reagents. The detection is allowed to proceed for 1 hr at room temperature. Detection of the phosphorlated substrate in the absence and presence of inhibitors is measured in the TR-FRET instrument, Analyst HT (Molecular Probes, Sunnyvale, Calif.) and the condition for measurements are set up using CriterionHost Release 2.0 (Molecular Probes, Sunnyvale, Calif.). The settings used are a follows: excitation 360 nm, emission 665-7.5 nm, beam splitter 350 nm 50/50, flash 100 pulses, delay 60 us, integration 400 us, z-height 2 mm. Inhibition of SYK-tyrosine kinase activity is calculated as the maximum response observed in the presence of inhibitor, compared to that in the absence of inhibitor. IC50s were derived by non-linear regression analysis.

| IC50 | SMILES |
| --- | --- |
| 100 to 1000 nM | CC(=O)N1CCN(c2ccc(Nc3nc(NC4CC4)cnc3C(N)=O)cc2)CC1 [Example 59, 3-(4-(4-acetylpiperazin-1-yl)phenylamino)-5-(cyclopropylamino)pyrazine-2-carboxamide] |
| > 1000 nM | CC(=O)N1CCN(c2ccc(Nc3cnc(C(N)=O)c(NC4CC4)n3)cc2)CC1 [Example 60, 5-(4-(4-acetylpiperazin-1-yl)phenylamino)-3-(cyclopropylamino)pyrazine-2-carboxamide] |
| 100 to 1000 nM | Cc1cccc(Nc2nc(N[C@@H]3CCCC[C@@H]3N)cnc2C(N)=O)c1 [Example 61, 5-((1R,2S)-2-aminocyclohexylamino)-3-(m-tolylamino)pyrazine-2-carboxamide] |
| 100 to 1000 nM | NC(=O)c1ncc(N[C@@H]2CCCC[C@@H]2N)nc1Nc1ccc(-n2cccn2)cc1 [Example 62, 3-(4-(1H-pyrazol-1-yl)phenylamino)-5-((1R,2S)-2-aminocyclohexylamino)pyrazine-2-carboxamide] |
| 10 to 100 nM | Cc1cccc(Nc2nc(N[C@H](CC(C)C)C(N)=O)cnc2C(N)=O)c1 [Example 63, (R)-5-(1-amino-4-methyl-1-oxopentan-2-ylamino)-3-(m-tolylamino)pyrazine-2-carboxamide] |
| 10 to 100 nM | CC(C)C[C@@H](Nc1cnc(C(N)=O)c(Nc2cccc(-n3nccn3)c2)n1)C(N)=O [Example 64, (R)-3-(3-(2H-1,2,3-triazol-2-yl)phenylamino)-5-(1-amino-4-methyl-1-oxopentan-2-ylamino)pyrazine-2-carboxamide] |
| 10 to 100 nM | CC(C)[C@@H](Nc1cnc(C(N)=O)c(Nc2cccc(-n3nccn3)c2)n1)C(N)=O [Example 65, (R)-3-(3-(2H-1,2,3-triazol-2-yl)phenylamino)-5-(1-amino-3-methyl-1-oxobutan-2-ylamino)pyrazine-2-carboxamide] |
| 1 to 10 nM | CC(C)[C@@H](Nc1cnc(C(N)=O)c(Nc2cnc3ccccc3c2)n1)C(N)=O [Example 66, (R)-5-(1-amino-3-methyl-1-oxobutan-2-ylamino)-3-(quinolin-3-ylamino)pyrazine-2-carboxamide] |
| 1 to 10 nM | CC(C)[C@@H](Nc1cnc(C(N)=O)c(Nc2ccc3ncccc3c2)n1)C(N)=O [Example 67, (R)-5-(1-amino-3-methyl-1-oxobutan-2-ylamino)-3-(quinolin-6-ylamino)pyrazine-2-carboxamide] |
| 1 to 10 nM | NC(=O)c1ncc(N[C@@H](C(N)=O)C2CC2)nc1Nc1cnc2ccccc2c1 [Example 68, (R)-5-(2-amino-1-cyclopropyl-2-oxoethylamino)-3-(quinolin-3-ylamino)pyrazine-2-carboxamide] |
| 10 to 100 nM | Cc1ccc(Nc2nc(N[C@H](CC(C)C)C(N)=O)cnc2C(N)=O)cc1 [Example 69, (R)-5-(1-amino-4-methyl-1-oxopentan-2-ylamino)-3-(p-tolylamino)pyrazine-2-carboxamide] |
| 10 to 100 nM | CC(C)C[C@@H](Nc1cnc(C(N)=O)c(Nc2cncc(F)c2)n1)C(N)=O [Example 70, (R)-5-(1-amino-4-methyl-1-oxopentan-2-ylamino)-3-(5-fluoropyridin-3-ylamino)pyrazine-2-carboxamide] |

More lines, now with the values behind:

| SMILES | IC50 |
| --- | --- |
| CC[C@@H](Nc1cnc(C(N)=O)c(Nc2ccc(-c3ccncc3)cc2)n1)C(N)=O [Example 28, (R)-5-(1-amino-1-oxobutan-2-ylamino)-3-(4-(pyridin-4-yl)phenylamino)pyrazine-2-carboxamide] | 1 to 10 nM |
| CC[C@@H](Nc1cnc(C(N)=O)c(Nc2ccc(-c3cccnc3)cc2)n1)C(N)=O [Example 29, (R)-5-(1-amino-1-oxobutan-2-ylamino)-3-(4-(pyridin-3-yl)phenylamino)pyrazine-2-carboxamide] | 1 to 10 nM |
| CC[C@@H](Nc1cnc(C(N)=O)c(Nc2ccc3c(c2)CCC(=O)N3)n1)C(N)=O [Example 30, (R)-5-(1-amino-1-oxobutan-2-ylamino)-3-(2-oxo-1,2,3,4-tetrahydroquinolin-6-ylamino)pyrazine-2-carboxamide] | 1 to 10 nM |
| NC(=O)c1ncc(N[C@H](Cc2ccccc2)C(N)=O)nc1Nc1ccc2ncccc2c1 [Example 31, (R)-5-(1-amino-1-oxo-3-phenylpropan-2-ylamino)-3-(quinolin-6-ylamino)pyrazine-2-carboxamide] | 1 to 10 nM |
| NC(=O)c1ncc(N[C@H](Cc2cccs2)C(N)=O)nc1Nc1ccc2ncccc2c1 [Example 32, (R)-5-(1-amino-1-oxo-3-(thiophen-2-yl)propan-2-ylamino)-3-(quinolin-6-ylamino)pyrazine-2-carboxamide] | < 1 nM |
| NC(=O)c1ncc(N[C@@H](C(N)=O)c2ccccc2)nc1Nc1ccc2ncccc2c1 [Example 33, (R)-5-(2-amino-2-oxo-1-phenylethylamino)-3-(quinolin-6-ylamino)pyrazine-2-carboxamide] | 1 to 10 nM |
| NC(=O)c1ncc(NC2(C(N)=O)CCC2)nc1Nc1ccc2ncccc2c1 [Example 34, 5-(1-carbamoylcyclobutylamino)-3-(quinolin-6-ylamino)pyrazine-2-carboxamide] | 1 to 10 nM |
| NC(=O)c1ncc(N[C@@H]2CCCC[C@@H]2N)nc1NC1CCOCC1 [Example 35, 5-((1R,2S)-2-aminocyclohexylamino)-3-(tetrahydro-2H-pyran-4-ylamino)pyrazine-2-carboxamide] | > 1000 nM |
| NC(=O)c1ncc(N[C@@H]2CCCC[C@@H]2N)nc1NC1CCCC1 [Example 36, 5-((1R,2S)-2-aminocyclohexylamino)-3-(cyclopentylamino)pyrazine-2-carboxamide] | > 1000 nM |
| NC(=O)c1ncc(N[C@@H]2CCCC[C@@H]2N)nc1NC1Cc2ccccc2C1 [Example 37, 5-((1R,2S)-2-aminocyclohexylamino)-3-(2,3-dihydro-1H-inden-2-ylamino)pyrazine-2-carboxamide] | 10 to 100 nM |
| NC(=O)c1ncc(N[C@@H]2CCCC[C@@H]2N)nc1N[C@@H]1CCc2ccccc21 [Example 38, 5-((1R,2S)-2-aminocyclohexylamino)-3-((R)-2,3-dihydro-1H-inden-1-ylamino)pyrazine-2-carboxamide] | 100 to 1000 nM |
| NC(=O)c1ncc(N[C@@H]2CCCC[C@@H]2N)nc1N[C@H]1CCc2ccccc21 [Example 39, 5-((1R,2S)-2-aminocyclohexylamino)-3-((S)-2,3-dihydro-1H-inden-1-ylamino)pyrazine-2-carboxamide] | 100 to 1000 nM |
| NC(=O)c1ncc(N[C@@H]2CCCC[C@@H]2N)nc1Nc1cc(-n2cccn2)cc(-n2cccn2)c1 [Example 44, 5-((1R,2S)-2-aminocyclohexylamino)-3-(3,5-di(1H-pyrazol-1-yl)phenylamino)pyrazine-2-carboxamide] | 1 to 10 nM |
| NC(=O)c1ncc(N[C@@H]2CCCC[C@@H]2N)nc1Nc1cc(-c2ncccn2)cc(-n2cccn2)c1 [Example 45, 3-(3-(1H-pyrazol-1-yl)-5-(pyrimidin-2-yl)phenylamino)-5-((1R,2S)-2-aminocyclohexylamino)pyrazine-2-carboxamide] | 1 to 10 nM |
| NC(=O)c1ncc(N[C@@H]2CCNC2)nc1Nc1cnc2ccccc2c1 [Example 55, (R)-5-(pyrrolidin-3-ylamino)-3-(quinolin-3-ylamino)pyrazine-2-carboxamide] | 1 to 10 nM |
| NC(=O)c1ncc(N[C@@H]2CCNC2)nc1Nc1ccc2ncccc2c1 [Example 56, (R)-5-(pyrrolidin-3-ylamino)-3-(quinolin-6-ylamino)pyrazine-2-carboxamide] | 1 to 10 nM |
| NC(=O)c1ncc(N[C@H]2CCCNC2)nc1Nc1cnc2ccccc2c1 [Example 57, (S)-5-(piperidin-3-ylamino)-3-(quinolin-3-ylamino)pyrazine-2-carboxamide] | 100 to 1000 nM |
| NC(=O)c1ncc(N[C@H]2CCCNC2)nc1Nc1ccc2ncccc2c1 [Example 58, (S)-5-(piperidin-3-ylamino)-3-(quinolin-6-ylamino)pyrazine-2-carboxamide] | 10 to 100 nM |
